Measured values as given in ChEMBL document CHEMBL1615344, “Cerep in vitro phospholipidosis assay data”.

Experiments:
Phospholipidosis = assay: (§1) Cerep Phospholipidosis assay (HepG2 cells); format: ADME, cell-based; details: human, hepg2
[1] = as §1; format: ADME, cell-based; details: human, HepG2 cells; read-out: Maximum test concentration that did not exhibit cytotoxicity

In the case of `CC(=O)N1CCN(c2ccc(OCC3COC(Cn4ccnc4)(c4ccc(Cl)cc4Cl)O3)cc2)CC1` (stereo not drawn) [KETOCONAZOLE], the “Phospholipidosis as % of positive control” value (from here on “Phospholipidosis as %”) (Phospholipidosis) is reported as 52% and the MNTC [1] is reported as 12.5 µM.

In the case of `C=C[C@H]1C[N@@]2CC[C@H]1C[C@@H]2[C@@H](O)c1ccnc2ccc(OC)cc12` [QUINIDINE], the “Phospholipidosis as %” value (Phospholipidosis) is reported as 3.2% and the MNTC [1] is reported as 25 µM.

With `CC(C)NCC(O)COc1cccc2ccccc12` (stereo not drawn) [PROPRANOLOL] the “Phospholipidosis as %” value (Phospholipidosis) was 36% and the MNTC [1] was 25 µM.

With `CN[C@H]1CC[C@@H](c2ccc(Cl)c(Cl)c2)c2ccccc21` [SERTRALINE] the “Phospholipidosis as %” value (Phospholipidosis) was 100% and the MNTC [1] was 3.13 µM.

For `CC[C@H]1OC(=O)[C@H](C)[C@@H](O[C@H]2C[C@@](C)(OC)[C@@H](O)[C@H](C)O2)[C@H](C)[C@@H](O[C@@H]2O[C@H](C)C[C@H](N(C)C)[C@H]2O)[C@](C)(O)C[C@@H](C)CN(C)[C@H](C)[C@@H](O)[C@]1(C)O` [AZITHROMYCIN], the “Phospholipidosis as %” value (Phospholipidosis) was 26.7% and the MNTC [1] was 25 µM.

With `CCN(CC)CCOc1ccc(C(O)(Cc2ccc(Cl)cc2)c2ccc(C)cc2)cc1` (stereo not drawn) [TRIPARANOL] the “Phospholipidosis as %” value (Phospholipidosis) was 44.9% and the MNTC [1] was 3.13 µM.

Work on `CNCCC(Oc1ccc(C(F)(F)F)cc1)c1ccccc1` (stereo not drawn) [FLUOXETINE] yielded an MNTC [1] of 5 µM.

With `CN(C)CCC=C1c2ccccc2COc2ccccc21` [DOXEPIN] the “Phospholipidosis as %” value (Phospholipidosis) was 36.4% and the MNTC [1] was 25 µM.

For `CCCCc1oc2ccccc2c1C(=O)c1cc(I)c(OCCN(CC)CC)c(I)c1` [AMIODARONE], the “Phospholipidosis as %” value (Phospholipidosis) was 38.4% and the MNTC [1] was 6.25 µM.

For `CNCCCC12CCC(c3ccccc31)c1ccccc12` [MAPROTILINE], the “Phospholipidosis as %” value (Phospholipidosis) was 42.2% and the MNTC [1] was 6.25 µM.

In the case of `CN(C)CCCN1c2ccccc2CCc2ccccc21` [IMIPRAMINE], the “Phospholipidosis as %” value (Phospholipidosis) is reported as 2.1% and the MNTC [1] is reported as 6.25 µM.

In the case of `CN(C)CCCC1(c2ccc(F)cc2)OCc2cc(C#N)ccc21` (stereo not drawn) [CITALOPRAM], the “Phospholipidosis as %” value (Phospholipidosis) is reported as 19.6% and the MNTC [1] is reported as 100 µM.

With `CC(=O)Nc1ccc(O)cc1` [ACETAMINOPHEN] the “Phospholipidosis as %” value (Phospholipidosis) was 0.3% and the MNTC [1] was 100 µM.

With `CCCC(CCC)C(=O)O` [VALPROIC ACID] the “Phospholipidosis as %” value (Phospholipidosis) was 0.2% and the MNTC [1] was 100 µM.

In the case of `CN(C)CCC=C1c2ccccc2CCc2ccccc21` [AMITRIPTYLINE], the “Phospholipidosis as %” value (Phospholipidosis) is reported as 49.8% and the MNTC [1] is reported as 20 µM.

In the case of `Nc1c(Br)cc(Br)cc1CN[C@H]1CC[C@H](O)CC1` [AMBROXOL], the “Phospholipidosis as %” value (Phospholipidosis) is reported as 29.7% and the MNTC [1] is reported as 50 µM.

With `O=C(CCCN1CCC(O)(c2ccc(Cl)cc2)CC1)c1ccc(F)cc1` [HALOPERIDOL] the “Phospholipidosis as %” value (Phospholipidosis) was 42.1% and the MNTC [1] was 12.5 µM.

In the case of `CC1=CC(=O)c2ccccc2C1=O` [MENADIONE], the “Phospholipidosis as %” value (Phospholipidosis) is reported as 1% and the MNTC [1] is reported as 3.13 µM.

In the case of `CC1COc2c(N3CCN(C)CC3)c(F)cc3c(=O)c(C(=O)O)cn1c23` (stereo not drawn) [OFLOXACIN], the “Phospholipidosis as %” value (Phospholipidosis) is reported as 0.3% and the MNTC [1] is reported as 50 µM.

In the case of `Cc1cccc(CN2CCN(C(c3ccccc3)c3ccc(Cl)cc3)CC2)c1` (stereo not drawn) [MECLIZINE], the “Phospholipidosis as %” value (Phospholipidosis) is reported as 10.5% and the MNTC [1] is reported as 25 µM.

With `CC[C@H]1OC(=O)[C@H](C)[C@@H](O[C@H]2C[C@@](C)(OC)[C@@H](O)[C@H](C)O2)[C@H](C)[C@@H](O[C@@H]2O[C@H](C)C[C@H](N(C)C)[C@H]2O)[C@](C)(O)C[C@@H](C)C(=O)[C@H](C)[C@@H](O)[C@]1(C)O` [ERYTHROMYCIN] the “Phospholipidosis as %” value (Phospholipidosis) was 61.9% and the MNTC [1] was 50 µM.

For `CCN(CC)CCCC(C)Nc1ccnc2cc(Cl)ccc12` (stereo not drawn) [CHLOROQUINE], the “Phospholipidosis as %” value (Phospholipidosis) was 22.8% and the MNTC [1] was 10 µM.

For `C1CCC(C(CC2CCCCN2)C2CCCCC2)CC1` (stereo not drawn) [PERHEXILINE], the “Phospholipidosis as %” value (Phospholipidosis) was 36% and the MNTC [1] was 3.13 µM.

With `CN1CCN(C2=Nc3cc(Cl)ccc3Nc3ccccc32)CC1` [CLOZAPINE] the “Phospholipidosis as %” value (Phospholipidosis) was 18.9% and the MNTC [1] was 12.5 µM.

For `OCCOCCN1CCN(C(c2ccccc2)c2ccc(Cl)cc2)CC1` (stereo not drawn) [HYDROXYZINE], the “Phospholipidosis as %” value (Phospholipidosis) was 35.8% and the MNTC [1] was 25 µM.

With `CC(CCc1ccccc1)NCC(O)c1ccc(O)c(C(N)=O)c1` (stereo not drawn) [LABETALOL] the “Phospholipidosis as %” value (Phospholipidosis) was 5.3% and the MNTC [1] was 25 µM.

With `CCN(CC)CCOc1ccc2c(c1)C(=O)c1cc(OCCN(CC)CC)ccc1-2` [TILORONE] the “Phospholipidosis as %” value (Phospholipidosis) was 20.2% and the MNTC [1] was 3.13 µM.

In the case of `CN(Cc1cc(Br)cc(Br)c1N)C1CCCCC1` [BROMHEXINE], the “Phospholipidosis as %” value (Phospholipidosis) is reported as 30.1% and the MNTC [1] is reported as 50 µM.

With `NCC[C@H](O)C(=O)N[C@@H]1C[C@H](N)[C@@H](O[C@H]2O[C@H](CN)[C@@H](O)[C@H](O)[C@H]2O)[C@H](O)[C@H]1O[C@H]1O[C@H](CO)[C@@H](O)[C@H](N)[C@H]1O` [AMIKACIN] the “Phospholipidosis as %” value (Phospholipidosis) was 4.9% and the MNTC [1] was 25 µM.

In the case of `CC(C)NCC(O)c1ccc(NS(C)(=O)=O)cc1` (stereo not drawn) [SOTALOL], the “Phospholipidosis as %” value (Phospholipidosis) is reported as 0.3% and the MNTC [1] is reported as 50 µM.

In the case of `CC/C(=C(\c1ccccc1)c1ccc(OCCN(C)C)cc1)c1ccccc1` [TAMOXIFEN], the “Phospholipidosis as %” value (Phospholipidosis) is reported as 53% and the MNTC [1] is reported as 6.25 µM.

In the case of `CN(C)CCCN1c2ccccc2Sc2ccc(Cl)cc21` [CHLORPROMAZINE], the “Phospholipidosis as %” value (Phospholipidosis) is reported as 54.7% and the MNTC [1] is reported as 5 µM.
